Read-outs that look alike come from different tables or passages of the source.

Assay [1] concerns ECL1002 (class C). In words: Aztreonam MIC of test strain. The format is cell-based. Particulars: read-out: Aztreonam MIC.
The subject of assay [2] is ec308 (SHV-5). As to the kind of experiment: Aztreonam MIC of test strain. It is filed as cell-based. Particulars: read-out: Aztreonam MIC.
The target of assay [3] is CMY-2 (Klebsiella pneumoniae, UniProt Q48434). In words: biochemical.
For assay [4], the target named is OXA-48 (Klebsiella pneumoniae, UniProt Q6XEC0). In words: Inhibition of nitrocefin cleavage by purified enzyme. It is filed as biochemical. How it is done:
(§1) Ki values of inhibition of purified class A, C and D enzymes were determined spectrophotometrically using nitrocefin as reporter substratre. Purified enzymes were mixed with various concentrations of inhibitors in reaction buffer and incubated for 10 min at room temperature. Nitrocefin was added and substrate cleavage profiles were recorded at 490 nm every 10 sec for 10 min.

Assay [5] concerns the target KPC-2 (Klebsiella pneumoniae, UniProt Q9F663). The assay is described as above. The format is biochemical. As for the experimental part:
as §1

For assay [6], the target named is CTX-M-14 (Escherichia coli, UniProt Q9L5C7). Described as above. Particulars: nitrocefin reporter substrate, 10 min preincubation, read-out: Ki (CTX-M-14, NCF). It is filed as biochemical. As for the experimental part:
as §1

Assay [7] concerns ec308 (SHV-5). In words: Tigemonam potentiation (MPC@4). The format is cell-based. To be noted: BLI concentration inhibiting growth with 4 μg/mL tigemonam; class A.
Assay [8] has as its system ec302 (TEM-10). In words: Tigemonam potentiation (MPC@4). The format is cell-based. To be noted: BLI concentration inhibiting growth with 4 μg/mL tigemonam; class A.
The subject of assay [9] is ECL1002 (class C). In words: Tigemonam potentiation (MPC@4). The format is cell-based. Particulars: BLI concentration inhibiting growth with 4 μg/mL tigemonam.
Assay [10] deals with KP1009 (CTX-M-15). In words: Aztreonam potentiation (MPC@4). It is filed as cell-based. To be noted: BLI concentration inhibiting growth with 4 μg/mL aztreonam; class A.
The subject of assay [11] is KPX1001 (OXA-2). In words: Aztreonam potentiation (MPC@4). The format is cell-based. To be noted: BLI concentration inhibiting growth with 4 μg/mL aztreonam; class D.
The test system of assay [12] is KP1010 (SHV-12). In words: Aztreonam potentiation (MPC@4). The format is cell-based.
The subject of assay [13] is KP1010 (SHV-12). As to the kind of experiment: Tigemonam potentiation (MPC@4). Particulars: BLI concentration inhibiting growth with 4 μg/mL tigemonam; class A. The format is cell-based.
Assay [14] deals with EC1010 (CMY-6). In words: Tigemonam potentiation (MPC@4). The format is cell-based. To be noted: BLI concentration inhibiting growth with 4 μg/mL tigemonam; class C.
The subject of assay [15] is KP1009 (CTX-M-15). In words: Tigemonam potentiation (MPC@4). It is filed as cell-based. To be noted: BLI concentration inhibiting growth with 4 μg/mL tigemonam; class A.
Assay [16] relates to KP1005 (CTX-M-14). As to the kind of experiment: Aztreonam potentiation (MPC@4). The format is cell-based. Particulars: BLI concentration inhibiting growth with 4 μg/mL aztreonam; class A.
Assay [17] relates to KP1007 (OXA-10). In words: Tigemonam potentiation (MPC@4). Particulars: BLI concentration inhibiting growth with 4 μg/mL tigemonam; class D. It is filed as cell-based.
Assay [18] has as its system ec302 (TEM-10). In words: Aztreonam potentiation (MPC@4). To be noted: BLI concentration inhibiting growth with 4 μg/mL aztreonam; class A. The format is cell-based.
For assay [19], the system named is ECL1002 (class C). As to the kind of experiment: Aztreonam potentiation (MPC@4). The format is cell-based. Particulars: BLI concentration inhibiting growth with 4 μg/mL aztreonam.
For assay [20], the system named is KP1004 (KPC-2). As to the kind of experiment: Aztreonam potentiation (MPC@4). The format is cell-based. Particulars: BLI concentration inhibiting growth with 4 μg/mL aztreonam; class A.
Assay [21] concerns KP1005 (CTX-M-14). In words: Tigemonam potentiation (MPC@4). The format is cell-based. Particulars: BLI concentration inhibiting growth with 4 μg/mL tigemonam; class A.
In assay [22] the test system is ec308 (SHV-5). In words: Aztreonam potentiation (MPC@4). It is filed as cell-based. Particulars: BLI concentration inhibiting growth with 4 μg/mL aztreonam; class A.
Assay [23] has as its system KP1007 (OXA-10). In words: Aztreonam potentiation (MPC@4). Particulars: BLI concentration inhibiting growth with 4 μg/mL aztreonam; class D. The format is cell-based.
For assay [24], the system named is EC1010 (CMY-6). In words: Aztreonam potentiation (MPC@4). The format is cell-based. Particulars: BLI concentration inhibiting growth with 4 μg/mL aztreonam; class C.
In assay [25] the target is SHV-12 (Klebsiella pneumoniae, UniProt P0AD64, E235K/G234S/L31Q). In words: Inhibition of nitrocefin cleavage by purified enzyme. It is filed as biochemical. To be noted: nitrocefin reporter substrate, 10 min preincubation, read-out: Ki (SHV-12, NCF). As for the experimental part:
as §1

Assay [26] addresses P99 /AmpC of ECL (Enterobacter cloacae, UniProt P05364). As to the kind of experiment: biochemical. Particulars: purified enzyme, nitrocefin reporter substrate, 10 min preincubation; read-out: Ki (P99 /AmpC of ECL, NCF).
The test system of assay [27] is ec302 (TEM-10). As to the kind of experiment: Tigemonam MIC of test strain.
For assay [28], the system named is ECL1002 (class C). Particulars: strain ECL1002, class C.
Assay [29] concerns KP1007 (OXA-10). As to the kind of experiment: Tigemonam MIC of test strain. Particulars: strain KP1007, OXA-10, class D.
Assay [30] relates to KP1010 (SHV-12). In words: Tigemonam MIC of test strain.
Assay [31] has as its system EC1010 (CMY-6). In words: Tigemonam MIC of test strain. To be noted: strain EC1010, CMY-6, class C.
Assay [32] deals with KP1005 (CTX-M-14).
[33] abbreviates: purified enzyme, nitrocefin reporter substrate, 10 min preincubation, read-out: Ki (CMY-2, NCF).
Where [34] appears, read: purified enzyme, nitrocefin reporter substrate, 10 min preincubation, read-out: Ki (OXA-48, NCF).
Where [35] appears, read: purified enzyme, nitrocefin reporter substrate, 10 min preincubation, read-out: Ki (KPC-2, NCF).
[36] abbreviates: BLI concentration inhibiting growth with 4 μg/mL aztreonam, class A.

Chain of CMY-2 (Q48434 21-381): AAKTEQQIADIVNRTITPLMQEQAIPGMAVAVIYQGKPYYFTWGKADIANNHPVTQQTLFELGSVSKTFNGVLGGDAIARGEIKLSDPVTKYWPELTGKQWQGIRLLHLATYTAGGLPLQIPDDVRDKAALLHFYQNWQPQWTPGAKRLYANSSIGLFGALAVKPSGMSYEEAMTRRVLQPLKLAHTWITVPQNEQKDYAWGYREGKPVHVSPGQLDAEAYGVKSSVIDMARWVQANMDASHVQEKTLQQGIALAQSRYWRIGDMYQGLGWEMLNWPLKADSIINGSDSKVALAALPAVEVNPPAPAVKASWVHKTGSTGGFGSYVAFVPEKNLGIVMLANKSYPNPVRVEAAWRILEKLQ
Chain of KPC-2 (Q9F663 25-293 limits assumed): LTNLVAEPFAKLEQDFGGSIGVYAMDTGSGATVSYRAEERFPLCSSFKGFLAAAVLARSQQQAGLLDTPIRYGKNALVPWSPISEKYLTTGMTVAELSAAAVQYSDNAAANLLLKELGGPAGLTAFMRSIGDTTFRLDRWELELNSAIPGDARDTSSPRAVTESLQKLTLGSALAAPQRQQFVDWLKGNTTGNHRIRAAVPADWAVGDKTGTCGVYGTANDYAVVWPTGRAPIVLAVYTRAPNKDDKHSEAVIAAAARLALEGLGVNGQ
Chain of OXA-48 (Q6XEC0 23-265 limits assumed): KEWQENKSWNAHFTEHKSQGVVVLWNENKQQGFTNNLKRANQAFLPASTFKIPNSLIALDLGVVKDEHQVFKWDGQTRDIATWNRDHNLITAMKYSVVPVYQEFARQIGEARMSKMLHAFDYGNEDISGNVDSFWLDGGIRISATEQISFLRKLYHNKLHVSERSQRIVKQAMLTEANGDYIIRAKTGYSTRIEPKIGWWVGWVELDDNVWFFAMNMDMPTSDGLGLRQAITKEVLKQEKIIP
Chain of CTX-M-14 (Q9L5C7 entry or part of it): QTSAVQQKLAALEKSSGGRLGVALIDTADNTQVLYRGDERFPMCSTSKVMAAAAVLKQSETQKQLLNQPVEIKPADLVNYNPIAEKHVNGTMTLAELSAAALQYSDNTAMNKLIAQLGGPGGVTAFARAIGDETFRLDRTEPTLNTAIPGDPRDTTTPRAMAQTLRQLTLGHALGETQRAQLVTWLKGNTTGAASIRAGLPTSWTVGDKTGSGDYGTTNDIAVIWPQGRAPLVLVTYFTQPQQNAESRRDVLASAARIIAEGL
Chain of SHV-12 (P0AD64 22-286 L31Q/G234S/E235K): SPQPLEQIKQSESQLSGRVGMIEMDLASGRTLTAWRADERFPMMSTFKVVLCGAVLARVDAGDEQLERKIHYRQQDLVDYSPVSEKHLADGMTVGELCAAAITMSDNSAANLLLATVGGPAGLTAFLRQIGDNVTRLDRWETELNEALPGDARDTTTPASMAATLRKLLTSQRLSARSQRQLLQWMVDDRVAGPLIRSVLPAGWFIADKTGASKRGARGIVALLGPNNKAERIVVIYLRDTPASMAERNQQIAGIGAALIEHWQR
Chain of P99 /AmpC of ECL (P05364 21-381): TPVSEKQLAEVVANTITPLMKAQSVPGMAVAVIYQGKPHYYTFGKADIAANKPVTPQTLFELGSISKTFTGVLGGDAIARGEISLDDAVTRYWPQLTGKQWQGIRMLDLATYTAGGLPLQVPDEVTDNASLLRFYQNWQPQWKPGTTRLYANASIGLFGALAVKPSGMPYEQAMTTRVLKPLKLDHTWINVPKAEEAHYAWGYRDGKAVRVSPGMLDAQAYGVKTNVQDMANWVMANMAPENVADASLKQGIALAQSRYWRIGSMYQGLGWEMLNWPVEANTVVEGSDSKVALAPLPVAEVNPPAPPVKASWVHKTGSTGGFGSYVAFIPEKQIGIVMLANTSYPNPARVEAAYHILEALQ

On to `C[C@H]1[C@H](NC(=O)/C(=N\OC(C)(C)C(=O)O)c2csc(N)n2)C(=O)N1S(=O)(=O)O` [Aztreonam], for which the MIC in [1] and in assay [2] was 64 µg/mL throughout.
On to `O=C(O)[C@H]1/C(=C/CO)O[C@@H]2CC(=O)N21` [Clavulanic Acid], for which the Ki is over 100 µM in assay [3] (setting [33]), 18.6 µM in assay [4] (setting [34]), 41.2 µM in [5] (setting [35]) and 0.027 µM in assay [6]. In addition, in assay [7], the “MPC4 SHV-5 ec308” value is reported as “<=0.6 μg/mL”. In addition, the “MPC4 TEM-10 ec302” value in assay [8] turned out to be 2.5 µg/mL. The “MPC4 ECL1002” value in assay [9] is over 40 µg/mL. Besides, the “AZT MPC4 CTX-M-15 KP1009” value in [10] came to 1.25 µg/mL. Besides, the “AZT MPC@4 OXA-2, KPX1001” value in assay [11] worked out at 5 µg/mL. The “AZT MPC4 SHV-12 KP1010” value in assay [12] (setting [36]) amounted to 0.04 µg/mL. In addition, the “MPC4 SHV-12 KP1010” value in assay [13] is given as “<=0.6 μg/mL”. The “MPC4 CMY-6, EC1010” value in [14] amounted to 40 µg/mL. The “MPC4 CTX-M-15 KP1009” value in [15] was 1.25 µg/mL. For the same compound, the “AZT MPC4 CTX-M-14 KP1005” value in assay [16] amounted to 1.25 µg/mL. In addition, in [17], the “MPC4 OXA-10, KP1007” value is given as “<=0.6 μg/mL”. In addition, the “AZT MPC4 TEM-10 ec302” value in assay [18] turned out to be 0.3 µg/mL. In addition, the “AZT MPC@4 ECL1002” value in [19] is over 40 µg/mL. The “AZT MPC4 KPC-2 KP1004” value in assay [20] was over 40 µg/mL. In [21], the “MPC4 CTX-M-14 KP1005” value worked out at 2.5 µg/mL. For the same compound, the “AZT MPC4 SHV-5 ec308” value in assay [22] was 0.08 µg/mL. Besides, the “AZT MPC@4 OXA-10, KP1007” value in assay [23] came out at 0.08 µg/mL. Also, in assay [24], the “AZT MPC@4 CMY-6 EC1010” value is 40 µg/mL.
Take `O=C(Cc1cccs1)N[C@@H](Cn1cc(C(=O)O)nn1)B(O)O` [Compound 1, (R)-1-(2-borono-2-(2-(thiophen-2-yl)acetamido)ethyl)-1H-1,2,3-triazole-4-carboxylic acid]: the Ki came to 0.06 µM in assay [3] (setting [33]); 23.3 µM in assay [4] (setting [34]); 0.039 µM in assay [5] (setting [35]); 0.005 µM in assay [6]; 0.005 µM in assay [25]; 0.08 µM in assay [26]. Further, the “MPC4 SHV-5 ec308” value in assay [7] was found to be 2.5 µg/mL. For the same compound, the “MPC4 TEM-10 ec302” value in [8] is over 40 µg/mL. Besides, the “MPC4 ECL1002” value in [9] came out at 5 µg/mL. Also, the “AZT MPC4 CTX-M-15 KP1009” value in [10] came out at 10 µg/mL. Also, the “AZT MPC@4 OXA-2, KPX1001” value in assay [11] stood at 40 µg/mL. Moreover, the “AZT MPC4 SHV-12 KP1010” value in assay [12] (setting [36]) worked out at 0.3 µg/mL. Also, the “MPC4 SHV-12 KP1010” value in assay [13] turned out to be 0.3 µg/mL. In addition, the “MPC4 CMY-6, EC1010” value in assay [14] is 0.6 µg/mL. In addition, the “MPC4 CTX-M-15 KP1009” value in assay [15] stood at 1.25 µg/mL. In [16], the “AZT MPC4 CTX-M-14 KP1005” value was 1.25 µg/mL. Besides, the “MPC4 OXA-10, KP1007” value in [17] came out at 0.3 µg/mL. For the same compound, the “AZT MPC4 TEM-10 ec302” value in [18] was over 40 µg/mL. Further, in assay [19], the “AZT MPC@4 ECL1002” value is 20 µg/mL. In [20], the “AZT MPC4 KPC-2 KP1004” value is 5 µg/mL. In addition, the “MPC4 CTX-M-14 KP1005” value in assay [21] was 2.5 µg/mL. For the same compound, in assay [22], the “AZT MPC4 SHV-5 ec308” value is 0.6 µg/mL. In assay [23], the “AZT MPC@4 OXA-10, KP1007” value is 0.6 µg/mL. Moreover, the “AZT MPC@4 CMY-6 EC1010” value in assay [24] is 20 µg/mL.
For the compound `C[C@]1(Cn2ccnn2)[C@H](C(=O)O)N2C(=O)C[C@H]2S1(=O)=O` [Tazobactam], the Ki was found to be 0.71 µM in [3], 0.16 µM in assay [4] and 1.6 µM in [5]. Moreover, in assay [7], the “MPC4 SHV-5 ec308” value amounted to 5 µg/mL. Besides, the “MPC4 TEM-10 ec302” value in assay [8] amounted to 5 µg/mL. Further, the “MPC4 ECL1002” value in [9] was found to be 10 µg/mL. For the same compound, in assay [10], the “AZT MPC4 CTX-M-15 KP1009” value worked out at 20 µg/mL. For the same compound, in assay [11], the “AZT MPC@4 OXA-2, KPX1001” value was over 40 µg/mL. The “AZT MPC4 SHV-12 KP1010” value in assay [12] is 1.25 µg/mL. The “MPC4 SHV-12 KP1010” value in assay [13] worked out at 1.25 µg/mL. The “MPC4 CMY-6, EC1010” value in [14] came to 2.5 µg/mL. For the same compound, the “MPC4 CTX-M-15 KP1009” value in [15] was 10 µg/mL. Further, the “AZT MPC4 CTX-M-14 KP1005” value in [16] is 10 µg/mL. In addition, the “MPC4 OXA-10, KP1007” value in assay [17] came out at 5 µg/mL. In addition, the “AZT MPC4 TEM-10 ec302” value in assay [18] turned out to be 5 µg/mL. Besides, the “AZT MPC@4 ECL1002” value in assay [19] is over 40 µg/mL. Moreover, the “AZT MPC4 KPC-2 KP1004” value in [20] was over 40 µg/mL. The “MPC4 CTX-M-14 KP1005” value in assay [21] was 10 µg/mL. In assay [22], the “AZT MPC4 SHV-5 ec308” value amounted to 10 µg/mL. In [23], the “AZT MPC@4 OXA-10, KP1007” value worked out at 5 µg/mL. The “AZT MPC@4 CMY-6 EC1010” value in assay [24] is 20 µg/mL.
Take `CC1(C)[C@H](NC(=O)/C(=N\OCC(=O)O)c2csc(N)n2)C(=O)N1OS(=O)(=O)O` [Tigemonam]: the “Tigemonam MIC” value was over 512 µg/mL in [27]; 32 µg/mL in assay [28]; over 64 µg/mL in assay [29]; 256 µg/mL in assay [30]; 16 µg/mL in assay [31]; 512 µg/mL in assay [32].

As usually defined, the MIC is the smallest concentration in the dilution series that meets the test's criterion for growth inhibition.

The values are drawn from US9156858B2, “Boronic acid derivatives and therapeutic uses thereof” (priority 2012, dated 2015).
